# Measurements taken from ChEMBL document CHEMBL1201862, “PubChem BioAssay data set” (2004).
# Activity calls are given as the source filed them.
# Assays:
# cells [1] = type: functional, cell-based; settings: HEK-CNG
# Galanin receptor type 3 = Galanin receptor type 3 (Homo sapiens, UniProt O60755); assay: Fluorescence-based cell-based primary high throughput dose response assay to identify antagonists of the Galanin Receptor 3 (GalR3).; type: functional
# [2] = Luminescence Cell-Based Dose Response HTS to Identify Activators of Luciferase Translation or Activity in H4 […] Cells. [Related pubchem assays: 1829 (Project Summary), 1814 (Primary HTS)]; type: functional
# Streptococcus = assay: Group A Streptococcus viability loss, dose response, counter-screen for streptokinase expression inhibitor project, luminescence, BacTiterGlo (AID 1915); type: functional, organism-based;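 further: potency for reduction of bacterial viability or growth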
# [3] = test system: Streptococcus sp. 'group A'; assay: growth inhibition of control SK(-) GAS strain, dose response, counter-screen for streptokinase expression inhibitor project, luminescence, kanamycin, BacTiterGlo, confirmation (AID 1900); type: functional, organism-based
# Streptokinase A = molecular target: T1, Streptokinase A (Streptococcus pyogenes serotype M1, UniProt P10520); assay: S. pyogenes streptokinase expression inhibitors, potency, dose response, plasminogen activation absorbance, OD405 (AID 1914); type: functional, Streptococcus pyogenes M1 GAS;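 further: secreted streptokinase activity via plasminogen activation per viability signal from cell pellet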
# T1 sequence (P10520 whole entry): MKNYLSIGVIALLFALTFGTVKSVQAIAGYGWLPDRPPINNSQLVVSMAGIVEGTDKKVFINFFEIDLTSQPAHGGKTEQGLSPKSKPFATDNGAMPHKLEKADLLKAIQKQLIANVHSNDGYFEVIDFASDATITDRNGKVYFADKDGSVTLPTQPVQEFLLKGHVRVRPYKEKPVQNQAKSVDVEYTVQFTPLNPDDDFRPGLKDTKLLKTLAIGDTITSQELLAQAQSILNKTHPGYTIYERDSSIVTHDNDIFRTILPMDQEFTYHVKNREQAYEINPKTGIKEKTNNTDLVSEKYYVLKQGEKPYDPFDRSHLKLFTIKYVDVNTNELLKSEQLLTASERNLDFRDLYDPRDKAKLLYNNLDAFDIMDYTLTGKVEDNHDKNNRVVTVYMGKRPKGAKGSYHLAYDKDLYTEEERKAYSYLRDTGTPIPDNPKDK
# [4] = Luminescence Cell-Based Dose Confirmation HTS to Identify Activators of 5'UTR Stem-Loop Driven Alpha-Synuclein mRNA Translation in H4 Neuroglioblastoma Cells. [Related pubchem assays: 1829 (Project Summary), 1814 (Primary HTS)]; type: functional
# H4 = assay: Luminescence Cell-Based Dose Response HTS to Identify Activators of 5'UTR Stem-Loop Driven Prion Protein mRNA Translation in H4 Neuroglioblastoma Cells. [Related pubchem assays: 1829 (Project Summary), 1814 (Primary HTS)]; type: functional; settings: Homo sapiens
# [5] = HEK293T cell cytotoxicity, dose response, cytotoxicity control for HIV Vif inhibitor project, cherry-picks (AID 652208); type: functional, cell-based
# Protein Wnt-3a = Protein Wnt-3a (Mus musculus, UniProt P27467); assay: SAR analysis of small molecule antagonists of Gli-SUFU in a Wnt3a luminescent reporter assay.; type: functional
# Chain of Protein Wnt-3a (P27467 whole entry): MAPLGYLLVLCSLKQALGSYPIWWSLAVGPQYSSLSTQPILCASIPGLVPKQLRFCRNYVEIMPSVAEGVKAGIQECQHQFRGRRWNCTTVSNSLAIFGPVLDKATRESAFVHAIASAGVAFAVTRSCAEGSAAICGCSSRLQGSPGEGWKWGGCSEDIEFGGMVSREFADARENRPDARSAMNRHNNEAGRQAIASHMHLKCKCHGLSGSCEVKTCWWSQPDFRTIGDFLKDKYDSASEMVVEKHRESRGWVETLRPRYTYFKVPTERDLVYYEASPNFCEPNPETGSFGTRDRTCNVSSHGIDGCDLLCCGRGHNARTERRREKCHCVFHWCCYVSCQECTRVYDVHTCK
# Beta Lactamase [6] = molecular target: T2, Beta Lactamase (Pseudomonas aeruginosa, UniProt Q932Y6); assay: VIM-2 metallo-beta-lactamase inhibitor potency, dose response, biochemical, epi-absorbance readout, selective inhibitors (AID 1919)
# T2 sequence (Q932Y6 whole entry): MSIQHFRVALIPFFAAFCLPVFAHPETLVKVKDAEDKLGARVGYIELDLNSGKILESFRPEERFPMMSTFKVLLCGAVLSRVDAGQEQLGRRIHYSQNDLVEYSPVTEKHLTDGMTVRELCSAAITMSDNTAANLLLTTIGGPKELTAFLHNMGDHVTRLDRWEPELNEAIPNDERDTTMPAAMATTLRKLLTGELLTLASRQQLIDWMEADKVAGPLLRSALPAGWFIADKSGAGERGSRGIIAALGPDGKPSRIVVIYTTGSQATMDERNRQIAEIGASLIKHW
# Beta-lactamase [7] = molecular target: Beta-lactamase (Salmonella choleraesuis (strain SC-B67), UniProt Q5J463); assay: Epi-absorbance-based counterscreen for selective VIM-2 inhibitors: dose response biochemical high throughput screening assay to identify inhibitors of TEM-1 serine-beta-lactamase.
# Chain of Beta-lactamase (Salmonella choleraesuis (strain SC-B67), UniProt Q5J463) (Q5J463 whole entry): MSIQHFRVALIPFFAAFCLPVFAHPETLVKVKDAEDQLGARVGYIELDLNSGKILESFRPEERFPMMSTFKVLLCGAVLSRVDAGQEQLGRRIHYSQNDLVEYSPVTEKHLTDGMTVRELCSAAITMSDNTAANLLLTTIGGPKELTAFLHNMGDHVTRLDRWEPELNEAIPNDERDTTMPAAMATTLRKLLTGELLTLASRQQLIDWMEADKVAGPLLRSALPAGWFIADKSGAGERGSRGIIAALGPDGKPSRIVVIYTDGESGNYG
# Beta-lactamase [8] = molecular target: T3, Beta-lactamase (Pseudomonas aeruginosa, UniProt Q79MP6); assay: IMP-1 metallo-beta-lactamase inhibitors, dose response, selectivity assay for VIM-2 inhibitor project, biochemical, epi-absorbance (AID 1920)
# T3 sequence (Q79MP6 whole entry): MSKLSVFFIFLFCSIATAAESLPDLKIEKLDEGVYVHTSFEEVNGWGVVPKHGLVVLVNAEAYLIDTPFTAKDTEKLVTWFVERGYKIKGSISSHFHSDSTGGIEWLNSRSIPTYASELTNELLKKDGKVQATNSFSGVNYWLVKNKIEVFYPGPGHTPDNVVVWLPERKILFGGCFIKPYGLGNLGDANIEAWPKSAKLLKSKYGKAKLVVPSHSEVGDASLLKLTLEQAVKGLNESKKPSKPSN
# Beta-lactamase [9] = molecular target: T3, Beta-lactamase; assay: […] counterscreen for selective VIM-2 inhibitors: dose response biochemical high throughput screening assay to identify inhibitors of IMP-1 metallo-beta-lactamase.
# Beta Lactamase [10] = molecular target: T2, Beta Lactamase; assay: VIM-2 inhibitor FRET-based artefact check, dose response, artefact control for selective VIM-2 inhibitor project, biochemical, FRET readout, CCF2 substrate (AID 1926)
# [11] = LMP1-driven NF-kB reporter inhibition, dose response, cell-based, luciferase reporter, luminescence, dry powder, set 2 (AID 624376); type: functional
# [12] = HEK293 cell viability, dose response, counter-screen for EBV LMP1 inhibitor project, dry powder, set 2 (AID 624374); type: functional
# Paired box protein Pax-8 = Paired box protein Pax-8 (Homo sapiens, UniProt Q06710); assay: inhibitors of PAX8-driven TPO luciferase reporter, dose response, RMG-I cells, cherry-pick (AID 687027); type: functional, cell-based;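 further: luciferase reporter driven by Pax8 target thyroperoxidase promoter measured by SteadyGlo luminescence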
# Chain of Paired box protein Pax-8 (Q06710 whole entry): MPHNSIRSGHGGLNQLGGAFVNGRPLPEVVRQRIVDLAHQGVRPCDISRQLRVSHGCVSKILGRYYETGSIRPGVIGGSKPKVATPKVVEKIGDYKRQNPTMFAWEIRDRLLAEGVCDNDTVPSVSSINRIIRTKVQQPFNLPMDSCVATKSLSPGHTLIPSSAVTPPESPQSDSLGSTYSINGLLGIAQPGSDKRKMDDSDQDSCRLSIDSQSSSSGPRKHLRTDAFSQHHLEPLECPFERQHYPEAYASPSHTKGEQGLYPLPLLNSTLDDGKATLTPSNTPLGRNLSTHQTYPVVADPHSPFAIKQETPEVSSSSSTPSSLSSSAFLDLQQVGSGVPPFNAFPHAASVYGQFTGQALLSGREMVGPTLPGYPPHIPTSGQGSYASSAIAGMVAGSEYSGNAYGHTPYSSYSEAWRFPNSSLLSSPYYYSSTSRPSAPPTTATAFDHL
# [13] = NIH:OVCAR-3 ovarian cancer cell cytotoxicity, dose response, PAX8 inhibitor project, plate reader, dry powder samples (AID 743044); type: functional, cell-based
# [14] = cytotoxicity in OVCAR8 ovarian cancer cells, dose response, PAX8 project, cell-based, plate reader, dry powder samples (AID 743197); type: functional; settings: OVCAR-8
# [15] = lymphoblastoid cell cytotoxicity, dose response, cytotoxicity control, plate reader, dry powder, set 2 (AID 624367); type: functional
# [16] = inhibitors of clade B AD8 Env fusion, dose response, cell-based, cherry-pick (AID 652062); type: functional;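 further: luciferase signal from cell-cell fusion driven by HIV-1 clade B AD8 Env; potency is for inhibitors of fusion seen as a drop in luminescence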
# [17] = inhibitors of HIV Env-driven cell fusion, dose response, cherry-pick (AID 652057); type: functional, cell-based
# [18] = CEM21 lymphoblast cell cytotoxicity, dose response, cytotoxicity control for viral fusion inhibitor project, CellTiter-Glo luminescence, cherry-picked (AID 652042); type: functional, cell-based;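 further: potency for signal decrease meaning cytotoxicity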
# [19] = LGR2 antagonists, dose response, cell-based, HEK293, CRE-luciferase reporter, cherry pick, set 2 (AID 743343); type: functional;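 further: transfected cells were stimulated with diluted bursicon conditioned medium after compound addition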
# [20] = molecular target: Photoreceptor-specific nuclear receptor (Homo sapiens, UniProt Q9Y5X4); type: functional, cell-based;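 further: CHO-S cells with Gal4-NCOR and VP16-NR2E3 two-hybrid luciferase reporter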
# [21] = HepG2 cell cytotoxicity, dose response, cytotoxicity control, plate reader, cherry-pick, antagonist series (AID 743416); type: functional, cell-based
# [22] = A549 cell cytotoxicity, dose response, cytotoxicity control, plate reader, cherry-pick, antagonist series (AID 743412); type: functional, cell-based
# A549 = assay: A549 cell toxicity, dose response, cytotoxicity control, plate reader, cherry-pick samples (AID 687028); type: functional, cell-based; settings: Homo sapiens
# [23] = MC4R antagonists, dose response, counter-screen for LGR2 antagonist project, cell-based, plate reader, cherry pick (AID 743444); type: functional;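 further: transfected HEK 293 cells stimulated with alpha-MSH peptide; potency of inhibitors of the alpha-MSH evoked signal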
# [24] = HEK293 cell cytotoxicity, dose response, cytotoxicity control, plate reader, cherry-picked samples (AID 743446); type: functional, cell-based
# [25] = molecular target: T4, Trace amine-associated receptor 1 (Homo sapiens, UniProt Q96RJ0); assay: Counterscreen for agonists of the human trace amine associated receptor 1 (hTAAR1): Fluorescence-based cell-based high throughput dose response assay to identify hTAAR1 agonist that also desensitize TAAR1 receptor response.; type: functional
# T4 sequence (Q96RJ0 whole entry): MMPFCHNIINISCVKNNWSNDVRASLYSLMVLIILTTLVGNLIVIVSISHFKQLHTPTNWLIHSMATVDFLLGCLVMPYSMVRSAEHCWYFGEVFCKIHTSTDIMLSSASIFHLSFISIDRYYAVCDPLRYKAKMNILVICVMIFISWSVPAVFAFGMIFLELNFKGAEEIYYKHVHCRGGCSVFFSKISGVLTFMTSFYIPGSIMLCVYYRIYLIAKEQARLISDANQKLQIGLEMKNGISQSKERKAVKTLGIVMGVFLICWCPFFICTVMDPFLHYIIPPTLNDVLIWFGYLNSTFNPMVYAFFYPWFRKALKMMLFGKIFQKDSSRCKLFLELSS
# [26] = molecular target: T4, Trace amine-associated receptor 1; assay: Fluorescence-based cell-based high throughput dose response assay to identify agonists of the human trace amine associated receptor 1 (TAAR1).; type: functional
# cells [27] = type: functional, cell-based
# cells [28] = type: functional, cell-based; remark: listed apart in the source
# cells [29] = type: functional, cell-based; remark: listed apart in the source
# [30] = molecular target: T5, Nuclear receptor subfamily 0 group B member 1 (Homo sapiens, UniProt P51843); type: functional, cell-based;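 further: HEK293T cells transfected with SF-1 and DAX-1 plus StAR promoter luciferase reporter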
# T5 sequence (P51843 whole entry): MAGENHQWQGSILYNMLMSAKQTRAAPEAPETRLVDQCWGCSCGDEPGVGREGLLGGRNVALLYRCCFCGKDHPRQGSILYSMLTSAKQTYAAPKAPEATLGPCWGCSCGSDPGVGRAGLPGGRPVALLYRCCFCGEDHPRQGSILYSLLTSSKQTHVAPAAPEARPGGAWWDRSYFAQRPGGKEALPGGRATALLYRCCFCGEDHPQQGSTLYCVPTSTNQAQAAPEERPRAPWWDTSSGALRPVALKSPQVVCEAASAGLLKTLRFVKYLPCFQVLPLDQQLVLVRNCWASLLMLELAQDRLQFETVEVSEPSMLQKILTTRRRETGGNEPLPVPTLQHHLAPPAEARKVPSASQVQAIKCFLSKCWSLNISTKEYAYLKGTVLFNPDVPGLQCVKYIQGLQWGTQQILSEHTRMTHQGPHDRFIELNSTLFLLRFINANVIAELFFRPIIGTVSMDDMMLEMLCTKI
# [31] = molecular target: 5-hydroxytryptamine receptor 2A (Mus musculus, UniProt P35363); type: functional, cell-based;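 further: CHO-K1 cells with tagged receptor and beta-arrestin; agonist potency measured as compound-induced activation of the receptor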
# Chain of 5-hydroxytryptamine receptor 2A (P35363 whole entry): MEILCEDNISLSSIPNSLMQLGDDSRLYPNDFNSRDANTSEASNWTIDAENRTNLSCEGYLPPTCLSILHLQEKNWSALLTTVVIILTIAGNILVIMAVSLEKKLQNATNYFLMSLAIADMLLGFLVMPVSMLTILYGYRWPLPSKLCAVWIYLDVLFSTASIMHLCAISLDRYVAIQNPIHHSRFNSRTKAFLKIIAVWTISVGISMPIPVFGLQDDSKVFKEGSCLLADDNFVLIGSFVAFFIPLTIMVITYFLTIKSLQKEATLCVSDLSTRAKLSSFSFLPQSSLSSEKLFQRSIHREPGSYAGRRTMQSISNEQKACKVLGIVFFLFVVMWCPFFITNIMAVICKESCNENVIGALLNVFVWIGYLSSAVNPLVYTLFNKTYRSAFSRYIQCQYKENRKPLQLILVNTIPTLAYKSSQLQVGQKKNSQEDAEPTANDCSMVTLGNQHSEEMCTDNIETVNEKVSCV
# Mu-type opioid receptor = Mu-type opioid receptor (Homo sapiens, UniProt P35372); type: functional, cell-based;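 further: U2OS cells with beta-arrestin recruitment to OPRM1 by beta-gal complementation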
# Chain of Mu-type opioid receptor (P35372 whole entry): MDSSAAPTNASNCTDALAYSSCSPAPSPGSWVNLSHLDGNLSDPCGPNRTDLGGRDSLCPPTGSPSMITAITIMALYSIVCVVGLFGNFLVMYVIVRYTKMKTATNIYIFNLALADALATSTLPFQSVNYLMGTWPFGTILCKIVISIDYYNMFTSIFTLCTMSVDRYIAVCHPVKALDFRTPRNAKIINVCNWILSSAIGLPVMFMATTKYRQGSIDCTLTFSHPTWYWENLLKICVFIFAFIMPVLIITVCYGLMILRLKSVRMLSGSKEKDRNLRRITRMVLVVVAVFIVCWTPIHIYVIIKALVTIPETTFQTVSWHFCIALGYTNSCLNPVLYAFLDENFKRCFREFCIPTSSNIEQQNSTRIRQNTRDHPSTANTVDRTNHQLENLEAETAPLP
# [32] = molecular target: SWI/SNF-related matrix-associated actin-dependent regulator of chromatin subfamily A member 2 (Homo sapiens, UniProt P51531); assay: Luminescence-based cell-based high throughput dose response assay to identify activators of the function of SWI/SNF related, matrix associated, actin dependent regulator of chromatin, subfamily a, member 2 (SMARCA2, BRM).; type: functional
# Chain of SWI/SNF-related matrix-associated actin-dependent regulator of chromatin subfamily A member 2 (P51531 whole entry): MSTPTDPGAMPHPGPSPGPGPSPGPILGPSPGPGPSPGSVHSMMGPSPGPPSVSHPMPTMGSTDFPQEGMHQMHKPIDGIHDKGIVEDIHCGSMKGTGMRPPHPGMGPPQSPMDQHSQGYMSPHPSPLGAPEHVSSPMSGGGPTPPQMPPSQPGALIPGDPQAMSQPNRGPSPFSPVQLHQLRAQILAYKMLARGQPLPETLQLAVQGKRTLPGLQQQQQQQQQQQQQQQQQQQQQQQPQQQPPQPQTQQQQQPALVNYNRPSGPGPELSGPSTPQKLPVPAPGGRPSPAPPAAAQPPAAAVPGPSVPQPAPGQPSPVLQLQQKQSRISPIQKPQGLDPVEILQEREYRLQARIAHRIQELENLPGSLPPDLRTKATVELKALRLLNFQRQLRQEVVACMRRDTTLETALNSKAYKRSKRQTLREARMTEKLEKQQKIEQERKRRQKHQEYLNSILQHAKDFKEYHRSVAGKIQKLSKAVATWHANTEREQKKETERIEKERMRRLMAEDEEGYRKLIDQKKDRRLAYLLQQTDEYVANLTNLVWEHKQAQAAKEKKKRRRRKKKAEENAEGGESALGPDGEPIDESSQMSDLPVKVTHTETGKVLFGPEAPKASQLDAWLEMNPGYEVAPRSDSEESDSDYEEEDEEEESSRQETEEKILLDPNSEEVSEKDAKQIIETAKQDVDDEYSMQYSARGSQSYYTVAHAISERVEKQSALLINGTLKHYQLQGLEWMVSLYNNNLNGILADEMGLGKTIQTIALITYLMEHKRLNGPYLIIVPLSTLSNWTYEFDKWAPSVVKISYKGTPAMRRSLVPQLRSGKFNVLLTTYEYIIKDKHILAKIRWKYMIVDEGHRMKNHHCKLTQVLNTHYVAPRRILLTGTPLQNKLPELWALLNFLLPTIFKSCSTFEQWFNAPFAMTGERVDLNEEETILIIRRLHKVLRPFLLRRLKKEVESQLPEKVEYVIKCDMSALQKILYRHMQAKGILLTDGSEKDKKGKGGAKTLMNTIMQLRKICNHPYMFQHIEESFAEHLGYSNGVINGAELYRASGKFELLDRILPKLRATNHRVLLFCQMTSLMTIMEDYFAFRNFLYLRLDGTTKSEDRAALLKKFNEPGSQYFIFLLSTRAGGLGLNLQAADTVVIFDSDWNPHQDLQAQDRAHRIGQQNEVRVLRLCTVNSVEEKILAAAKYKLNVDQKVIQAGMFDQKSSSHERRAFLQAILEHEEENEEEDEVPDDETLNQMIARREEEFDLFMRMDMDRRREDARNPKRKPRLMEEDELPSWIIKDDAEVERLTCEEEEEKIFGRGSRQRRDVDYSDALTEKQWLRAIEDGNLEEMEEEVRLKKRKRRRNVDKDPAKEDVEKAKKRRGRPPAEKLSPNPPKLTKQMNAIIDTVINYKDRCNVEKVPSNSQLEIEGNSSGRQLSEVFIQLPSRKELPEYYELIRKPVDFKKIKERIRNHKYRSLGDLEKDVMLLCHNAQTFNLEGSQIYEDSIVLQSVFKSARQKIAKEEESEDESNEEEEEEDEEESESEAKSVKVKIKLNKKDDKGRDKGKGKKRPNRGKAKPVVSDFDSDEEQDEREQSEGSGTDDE
# [33] = Counterscreen for activators of the function of SWI/SNF related, matrix associated, actin dependent regulator of chromatin, subfamily a, member 2 (SMARCA2, BRM): Luminescence-based cell-based high throughput dose response assay to identify non-selective compounds using the VP16 reporter assay.; type: functional
# Prothrombin = Prothrombin (Homo sapiens, UniProt P00734); assay: Thrombin 1536 HTS Dose Response Confirmation. [Related pubchem assays: 1046 (Thrombin 1536 HTS; hits were confirmed in this assay)]; type: functional
# Chain of Galanin receptor type 3 (O60755 whole entry): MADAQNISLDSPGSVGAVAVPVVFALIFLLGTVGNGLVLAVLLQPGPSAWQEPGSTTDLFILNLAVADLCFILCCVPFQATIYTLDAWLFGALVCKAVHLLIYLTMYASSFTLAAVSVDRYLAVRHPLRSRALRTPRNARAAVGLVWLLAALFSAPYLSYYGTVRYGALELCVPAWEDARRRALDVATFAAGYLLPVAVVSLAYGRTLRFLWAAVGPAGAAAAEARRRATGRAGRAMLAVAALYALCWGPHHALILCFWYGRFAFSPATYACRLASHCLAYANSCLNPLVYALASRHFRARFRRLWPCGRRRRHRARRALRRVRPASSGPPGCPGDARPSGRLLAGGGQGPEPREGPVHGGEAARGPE
smiles,measurement,setting,value
CCCCCC(O)C=CC1C(O)CC(O)C1CC=CCCCC(=O)O (stereo not given),EC50,cells [1],> 29.9 µM (inactive)
same,IC50,Galanin receptor type 3,> 0.123 µM (active)
O=C1Nc2ccccc2S/C1=C/Nc1cccc(Cl)c1,EC50,[2],32.5 µM (active)
same,EC50,Streptococcus,6.87 µM (active)
same,EC50,[3],17.9 µM (active)
same,EC50,Streptokinase A,> 150 µM (not active)
same,EC50,[4],> 120 µM (not active)
same,EC50,H4,> 120 µM (not active)
same,AC50,[5],> 52 µM (inactive)
O=C(Nc1cc(N2CCCC2)ncn1)c1ccccc1,IC50,Protein Wnt-3a,> 21.8 µM (inactive)
COc1ccc(OC)c(C2C(C(=O)c3ccco3)=C(O)C(=O)N2Cc2cccnc2)c1 (stereo not given),IC50,Beta Lactamase [6],1.94 µM (active)
same,IC50,Beta-lactamase [7],> 59.6 µM (inactive)
same,IC50,Beta-lactamase [8],> 59.6 µM (inactive)
same,IC50,Beta-lactamase [9],> 59.6 µM (inactive)
same,IC50,Beta Lactamase [10],0.7 µM (active)
C[C@H](CO)N1C[C@H](C)[C@@H](CN(C)S(=O)(=O)c2cccc(F)c2)Oc2ncc(C#CC3CCCCC3)cc2C1=O,AbsAC35,[11],44.29 µM
same,AbsAC35,[12],324.37 µM
O=C(Nc1ccc(C(F)(F)F)cc1)Nc1ccc2c(c1)[C@H]1C[C@@H](CC(=O)N3CCc4ccccc4C3)O[C@@H](CO)[C@H]1O2,AC50,Paired box protein Pax-8,10.7 µM (active)
same,AC50,[13],63.1 µM (active)
same,AC50,[14],> 70 µM (inactive)
same,AbsAC35,[15],44.28 µM
COc1ccc2c3c([nH]c2c1)[C@H](CO)N(C(=O)Nc1cccc(F)c1)CC31CN(S(=O)(=O)c2cccc(C)c2)C1,AC50,[16],38.1 µM (active)
same,AC50,[17],27.7 µM (active)
same,AC50,[18],27.5 µM (active)
Cc1cnc(NC(=O)C2CC(=O)N(c3cccc(Cl)c3)C2)s1 (stereo not given),AC50,[19],4.8 µM (active)
same,IC50,[20],0.0757 µM (active)
same,AC50,[21],0.763 µM (active)
same,AC50,[22],4.65 µM (active)
same,AC50,A549,14.8 µM (active)
same,AC50,[23],5.08 µM (active)
same,AC50,[24],> 52 µM (inactive)
COc1cc(C)c(NC(=O)C(S)=NCCc2ccccc2)cc1C,IC50,[25],2.38 µM (active)
same,EC50,[26],0.766 µM (active)
same,EC50,cells [27],> 29.9 µM (inactive)
same,IC50,cells [28],> 29.9 µM (inactive)
CC(=O)c1sc(Nc2ccc(Oc3ccccc3)cc2)nc1C,IC50,cells [29],> 67.6 µM (inactive)
same,IC50,[30],> 67.6 µM (inactive)
Clc1ccccc1CN1CCN(c2ncccn2)CC1,EC50,[31],0.407 µM (active)
same,EC50,Mu-type opioid receptor,92.5 µM (inactive)
OCCCCCN=c1cc(-c2ccccc2)oc2ccc(Cl)cc12,EC50,[32],> 10.1 µM (inactive)
same,EC50,[33],> 10.1 µM (inactive)
same,EC50,[2],8.23 µM (active)
same,EC50,[4],14.4 µM (active)
same,IC50,Prothrombin,3.04 µM (active)
same,EC50,H4,15.2 µM (active)
